Key:
[1] = system: naïve CD4+ T cells (Th1 or Th2 cells); assay: In vitro Th1 and Th2 differentiation (IFN-γ, IL-4, T-bet, GATA3); type: cell-based, mouse; settings: 20 μM, day 5
Protocol: In Vitro T Cell Culture. Naïve CD4^+ (CD62L^+ CD44^− CD25^− CD4^+) T cells were isolated from the spleens and the lymph nodes of mice of designated genotypes with FACS sorting. For certain experiments, naïve CD4^+ T cells were enriched using naïve CD4^+ T cell isolation kits (Miltenyi). Naïve CD4^+ T cells (40,000 cells) were cultured in a 96-well plate pre-coated with hamster IgG (MP Biomedicals) in T cell medium (RPMI, 10% fetal bovine serum, 25 mM glutamine, 55 μM 2-mercaptoethanol, 100 U/mL penicillin, […] streptomycin) supplemented with 0.25 μg/mL anti-CD3 (clone 145-2C11) and 1 μg/mL anti-CD28 (clone 37.51). For Th0 culture, T cells were cultured with the addition of 100 U/mL of IL-2 (PEPROTECH). For Th1 cell differentiation, T cells were cultured with the addition of 100 U/mL of IL-2, 10 μg/mL of anti-IL-4 (clone 11B11) and 10 ng/mL of IL-12 (PEPROTECH). For Th2 cell differentiation, T cells were cultured with the addition of 10 μg/mL of anti-IFNγ (clone XMG1.2) and 10 ng/mL of IL-4 (R&D Systems). For Th17 cell differentiation, T cells were cultured with the addition of 10 ng/mL of IL-6 (eBioscience) and 0.5 ng/mL of TGF-β (PEPROTECH). […]
Flow Cytometry. […] All flow cytometry analyses were performed on an LSR II flow cytometer (BD) and data were analyzed with FlowJo software (TreeStar).

CD4+ T cells = system: CD4+ T cells
From the text: Representative FACS plots of CD4^+ T cells cultured for 3 days and stained intracellularly for FoxP3 (e). Quantification of FoxP3^+ and viable T cells after 3-day culture (f) (n=2/group). n, number of biologically independent samples. Data are representative of two independent experiments (b, d). Data in (c) are shown as the mean±standard deviation.
Naïve CD4^+ T cells were isolated from FoxP3-IRES-GFP mice. d, Flow cytometry of CD4^+ T cells stained intracellularly for FoxP3. Naïve CD4^+ T cells isolated from WT, CNS1, CNS2 or CNS3 knockout mice (n=3/group) were cultured with anti-CD3/28 and IL-2, LCA (20 μM), TGF-β (0.05 ng/ml) and additional retinoic acid (RA; 1 ng/ml). e and f, Flow cytometry (e) and its quantification (f) of CD4^+ T cells stained intracellularly for FoxP3. […] Data are representative of two independent experiments (c, d). Data are shown as the mean±standard deviation by unpaired t-test with 2-tailed p-value.
Flow Cytometry. Cells harvested from in vitro culture or in vivo mice experiments were stimulated with 50 ng/mL PMA (Phorbol 12-myristate 13-acetate, Sigma) and 1 μM ionomycin (Sigma) in the presence of GolgiPlug (BD) for 4 h to determine cytokine expression. After stimulation, cells were stained with cell surface marker antibodies and LIVE/DEAD Fixable dye, Aqua, to exclude dead cells, fixed and permeabilized with a FoxP3/Transcription factor staining kit (eBioscience), followed by staining with cytokine- and/or transcription factor-specific antibodies. All flow cytometry analyses were performed on an LSR II flow cytometer (BD) and data were analyzed with FlowJo software (TreeStar).

[2] = system: ileal lamina propria Th17 and Treg cells; assay: SFB-dependent Th17 cells in mice fed bile acid diet; type: in vivo, mouse; settings: 0.3% diet
Protocol: Data are shown as the mean±standard deviation by unpaired t-test with 2-tailed p-value.
Cells were then analyzed by flow cytometry.

[3] = system: colon lamina propria Th17 cells; assay: Citrobacter rodentium infection of germ-free mice; type: in vivo, mouse; settings: germ-free B6 mice, C. rodentium, 0.3% diet
From the text: For the box plots (a, b), the three horizontal lines of the box represent the third quartile, median and first quartile, respectively from top to bottom. […] Mice were fed an autoclaved diet with or without 3-oxoLCA (0.3%) (n=9 mice/group).

For `C[C@H](CCC(=O)O)[C@H]1CC[C@H]2[C@@H]3CC[C@@H]4CC(=O)CC[C@]4(C)[C@H]3CC[C@]12C` [3-oxoLCA, 3-oxolithocholic acid], the “T cell differentiation into Th1 or Th2 cells” value [1] was “neither compound affected T cell differentiation into Th1 or Th2 cells”, the cell viability (CD4+ T cells) was “do not significantly affect cell proliferation, cell viability” and the “percentage of ileal Th17 cells” value ([2]; Jax-B6 mice gavaged with SFB, one week) was “significantly reduced the percentage of ileal Th17 cells”. The Th17 cell percentages ([2]; Tac-B6 mice with pre-existing SFB, 7 days) was “reduced levels of Th17 cell percentages”, the Treg percentages ([2]; Tac-B6 mice, 7 days) was “did not affect Treg percentages” and the “Th17 cell induction in the colon” value [3] was “reduced Th17 cell induction in the colons of germ-free B6 mice infected with Citrobacter rodentium”.

Reference: patent US12103946B2, “Steroid compounds as Treg modulators and uses thereof” (New York University, priority 2018, dated 2024)
